Laboratory results taken from patent US4659707A, “Aminoacyl derivatives of 4,9-dihydro-10H-pyrido[3,2-b]thieno[3,2-e][1,4]diazepinone and of 4,9-dihydro-10H-pyrido[3,2-b]thieno[3,4-e][1,4]diazepinone, their preparation and pharmaceutical compositions containing them” (Dompe' Farmaceutici S.p.A., priority 1985, dated 1987).

Assays:
Acute toxicity = settings: mouse, in vivo; Swiss mice, oral, observation 14 days
Procedure: The acute toxicity was determined by administering by oral route the substances under exam to Swiss mice; average weight 20±2 g. The observation period was 14 days. 10 Animals were used for each tested dose.

Carbachole salivation = assay: Charbacole salivation in the rat; type: in vivo, male Sprague-Dawley rats; settings: 1 h, oral one hour before 1 mg/kg i.p. charbacole, read-out: Carbachole salivation ED50 (confidence limits p = 0.95)
Procedure: 3. Charbacole salivation in the rat The method cited by R. Turner: "Parasympatholytic Agents" in R. Turner "Screening Methods in Pharmacology" pag. 137. Academic Press. New York & London 1965, with slight changes, was used. Male Sprague-Dawley rats, average weight 150±5 g, fasted for 24 hours, were used. The salivation was induced by the intraperitoneal administration of 1 mg/kg of charbacole. The products under exam were administered orally one hour before the chollinergic stimulus.

Gastric acid secretion = Gastric acid secretion in the pylorus ligated rat; type: in vivo, male Sprague-Dawley rats; settings: oral immediately after pylorus ligation, ligation 4 hours, read-out: Antisecretory activity ED50 (confidence limits p = 0.95)
Procedure: 1. Gastric acid secretion in the pylorus ligated rat The method of […]., Gruenstein M., Siplet H., Gastroenterology, 5, 43 (1945) was used, slightly modified according to the following: Male Sprague-Dawley rats weighing 150±5 g fasting since 48 hours were used. Pylorus ligation was performed for 4 hours. The products under exam were administered by the oral route immediately after the ligation.

Stress ulcer = Stress ulcer (restraint+immersion) in the rat; type: in vivo; settings: po, 6 hours immersion at about 20° C., ulcer score 0 to 5, read-out: Antiulcer activity (stress ulcer) ED50 (confidence limits p = 0.95)
Procedure: 2. Stress ulcer (restraint+immersion) in the rat The method described by Takagi, K., Okabes, S., Jap. J. Pharmacol., 18, 9 (1968) has been used. The animals fasted for 48 hours were immobilized in a stress cage (drilled cylindrical tube 14.5×3.5 cm) and immersed in H2 O (at a temperature of about 20° C.) up to the xiphoid process. After 6 hours immersion the animals were sacrificed in excess ether, the stomach was drawn and opened along the great curvature. The ulcers were evaluated according to a score ranging from 0 to 5 assigning: 0.5 for each small ulcera (<3 mm) or in the presence of erosions or haemorrages 1 for each great ulcer (>3 mm). The oral treatment with the reference drug pirenzepine at the doses of 12.5--25--50 mg/kg has been carried out 1 hour before the stress.

Tremors by oxotremorine = assay: Oxotremorine tremors in the mouse; type: in vivo; settings: oral 60 minutes before 2 mg/kg i.p. oxotremorine, read-out: Tremors by oxotremorine ED50 (confidence limits p)

CN1CCN(CC(=O)N2c3ccsc3C(=O)Nc3cccnc32)CC1.Cl [Example 3, 4-[(4-Methylpiperazin-1-yl)acetyl]-4,9-dihydro-10H-pyrido[3,2-b]thieno[3,2-e][1,4]-diazepin-10-one hydrochloride]
LD50 at 336 h (Acute toxicity): > 2000 mg/kg | ED50 (Carbachole salivation): > 200 mg/kg | ED50 (Gastric acid secretion): 27.6 mg/kg | ED50 (Stress ulcer): 55.9 mg/kg | ED50 (Tremors by oxotremorine): > 1000 mg/kg

Cc1scc2c1N(C(=O)CN1CCN(C)CC1)c1ncccc1NC2=O [Example 14, 4-[(4-Methylpiperazin-1-yl)acetyl]-3-methyl-4,9-dihydro-10H-pyrido[3,2-b]thieno[3,4-e][1,4]-diazepin-10-one]
LD50 at 336 h (Acute toxicity): > 500 mg/kg | ED50 (Carbachole salivation): 3.36 mg/kg | ED50 (Gastric acid secretion): 3.12 mg/kg | ED50 (Stress ulcer): 4.43 mg/kg | ED50 (Tremors by oxotremorine): > 10000 mg/kg

CN1CCN(CC(=O)N2c3cscc3C(=O)Nc3cccnc32)CC1 [Example 13, 4-[(4-Methylpiperazin-1-yl)acetyl]-4,9-dihydro-10H-pyrido[3,2-b]thieno[3,4-e][1,4]-diazepin-10-one]
LD50 at 336 h (Acute toxicity): > 1000 mg/kg | ED50 (Carbachole salivation): > 200 mg/kg | ED50 (Gastric acid secretion): 12.4 mg/kg | ED50 (Stress ulcer): 28.8 mg/kg | ED50 (Tremors by oxotremorine): > 1000 mg/kg
